Measured values: article PMC3280214, “Structure Based Discovery of Small Molecules to Regulate the Activity of Human Insulin Degrading Enzyme” (PLoS ONE, 2012)
“Also recorded” adds a separate entry of the source.

Key:
HeLa cells [1] = assay: Cell-based degradation of FITC-insulin; parameters: species or system human
Procedure: It was shown that HeLa cells express insulin receptor, and thus take FITC-labeled insulin inside and degrade it intracellularly, [21], [22]. First, FITC-insulin was added to the culture that contains HeLa cells and incubated for 2 hours in order to allow for sufficient uptake of FITC-insulin by HeLa cells. In order to ensure that FITC-labeled insulin is translocating into the cells through insulin uptake receptor, and that cytoplasmic IDE can degrade FITC- insulin, we conducted live cell imaging of HeLa cells, and recorded fluorescence. At various time points compounds, D3, D6, and D10, were added; and cells were washed with Hank's balanced salt solution (HBSS), the these cells were collected and lysed with appropriate buffer. After centrifugation, cell free extracts were used to measure the change in fluorescence by luminometer. […] Compound D10 increased in vivo proteolysis of FITC- insulin by about 32 fold with HeLa cells compared to control group (Fig. 3A). […] These findings are consistent with the data obtained by in vitro assay, showing enhanced degradation of insulin by D10 and D3 (Fig. 3A). […] This figure further verifies the significant increase in fluorescence observed in the presence of compound D10, which is consistent with our in vitro assay (Fig. 3B).
Cells were cultured at 37°C under a humidified atmosphere of 5% CO2 in medium supplemented with 10% fetal bovine serum. Then, FITC-insulin was added to cell medium and incubated for 2 h at 37°C. Next, compounds were loaded at different time intervals separately. Cells were washed with Hank's balanced salt solution (HBSS), then disrupted with 1× passive lysis buffer. Fluorescence was measured with a luminescence multi-label plate leader, and changes in fluorescence was imaged by fluorescence microscope at Burc Laboratory (Istanbul, Turkey).

IDE [2] = target: T1, IDE (Homo sapiens, UniProt P14735); assay: FAβB (amyloid-β) degradation assay; type: biochemical
T1 construct: made in house; host or cells: E. coli BL21
T1 sequence (P14735 1-1019): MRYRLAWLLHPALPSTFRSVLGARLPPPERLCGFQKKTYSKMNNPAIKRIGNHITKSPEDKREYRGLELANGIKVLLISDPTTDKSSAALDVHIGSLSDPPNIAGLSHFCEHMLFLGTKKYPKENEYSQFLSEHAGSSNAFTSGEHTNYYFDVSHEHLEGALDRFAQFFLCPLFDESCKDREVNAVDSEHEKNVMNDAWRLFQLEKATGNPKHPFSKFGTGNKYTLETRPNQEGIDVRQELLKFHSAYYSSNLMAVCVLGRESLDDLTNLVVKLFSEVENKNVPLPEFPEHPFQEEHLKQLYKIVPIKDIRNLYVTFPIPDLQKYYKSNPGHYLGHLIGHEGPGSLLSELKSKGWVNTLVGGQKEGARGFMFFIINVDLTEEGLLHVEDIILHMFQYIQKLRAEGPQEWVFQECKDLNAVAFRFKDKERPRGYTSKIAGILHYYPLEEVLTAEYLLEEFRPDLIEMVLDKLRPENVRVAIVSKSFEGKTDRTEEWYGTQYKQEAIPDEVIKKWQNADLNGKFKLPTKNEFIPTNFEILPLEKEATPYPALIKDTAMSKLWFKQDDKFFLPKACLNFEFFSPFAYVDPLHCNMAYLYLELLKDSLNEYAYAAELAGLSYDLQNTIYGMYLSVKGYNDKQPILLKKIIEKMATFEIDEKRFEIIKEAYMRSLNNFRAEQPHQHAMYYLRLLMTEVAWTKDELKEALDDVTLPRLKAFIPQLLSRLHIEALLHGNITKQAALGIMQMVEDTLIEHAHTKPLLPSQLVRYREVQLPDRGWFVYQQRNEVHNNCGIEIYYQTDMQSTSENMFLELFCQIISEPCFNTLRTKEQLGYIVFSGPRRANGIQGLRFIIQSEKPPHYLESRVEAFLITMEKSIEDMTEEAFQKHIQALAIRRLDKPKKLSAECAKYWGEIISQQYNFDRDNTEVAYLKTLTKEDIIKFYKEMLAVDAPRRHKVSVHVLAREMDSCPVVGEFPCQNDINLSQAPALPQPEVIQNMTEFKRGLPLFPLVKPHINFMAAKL
Procedure: The 10 compounds given in Table 1 were subjected to further characterization and their effect was measured on the proteolytic activity of IDE using different substrates. Initially, activity assays were carried out at fixed 20 µM concentrations for all molecules to identify the effect of those compounds on IDE activity. IDE activity was quantified by monitoring the change in fluorescence for the proteolysis of fluorogenic-substrate V, FITC- insulin-bound antibody, and FAβB by recombinant human IDE purified from E.coli BL21 [6], [18], [19]. […] Also, D6 increased the amyloid-β degradation by 20% (Fig. S1C). Further, D10 enhanced IDE-mediated FITC-insulin-mAb and substrate V degradation by 290% and 65%, respectively (Fig. S1A, B). Next, an EC50 value of each molecule that enhanced IDE activity was determined with a dose response assay, where specific activity of IDE was measured with different concentrations of the lead compounds and then the plot was fit to Sigmoidal Hill-4 parameter equation. […] EC50 value for D3 on insulin degradation was approximately measured as 20 µM (Fig. S2C), whereas EC50 value for D6 on amyloid-β degradation was 2 µM (Fig. S2D). […] Among all these four compounds, D10 seems to be the potent activator of IDE, when proteolysis of insulin is considered.
This assay was performed as follows: 10 µl of 50 nM of FAβB was dissolved in a buffer which consisted of 50 mM HEPES, 100 mM NaCl, % 0,05 (v/v) bovine serum albumin, at a pH of 7.4. The reaction was initiated in a total volume of 100 µl with 20 µM drugs by adding 20 µl of 0.02 mg/ml of IDE for 2.5 h at 37°C. The reaction was stopped by adding 2 µl of 100 mM of protease inhibitor (1, 10-phenanthroline). Uncleaved FAβB was precipitated with Neutravidin- coated agarose beads by gentle rocking for 30 min. and centrifugation for 10 min at 14000 g. The supernatant was transferred to the black 96 well plates and increase in fluorescence (488 excitation, 525 emission) was measured with a multi-label plate reader.
The effect of the lead compounds on the initial rate of proteolysis of IDE was determined by measurement in fluorescence with time both in the presence and absence of the lead compounds. The kinetic data for IDE-mediated insulin, substrate V and amyloid-β degradation were plotted and fitted using SigmaPlot software (Sigmoidal, Hill, 4 parameter). For the initial rate calculations, kinetic data were fitted using SigmaPlot software (Hyperbola; Single Rectangular I, 3 Parameter).

HeLa cells [3] = assay: MTT assay for cell viability; type: cell-based, human
Description: We characterized the activity of novel compounds in a cellular assay to establish whether there were any cytotoxic effects. We used an established MTT (3-(4,5-dimethylthiazolyl-2)-2, 5-diphenyltetrazolium bromide or thiazolyl blue) method using HELA cells to determine whether the small molecule affects cell viability. In this method, a purple formazan dye forms as a result of the cleavage of the yellow tetrazolium MTT within metabolically active cells. The resulting precipitate of the intracellular formazan can be dissolved in a detergent solution and quantified spectrophotometrically at 595 nm. We measured the cytotoxicity by incubating HELA cells in the presence of novel compounds at concentrations ranging from 1 to 100 µM for 24 h. Cell viability was measured using the MTT method after […] culture. The extent of cell death was expressed relative to a control containing DMSO. […] Therefore, as a next step we tested the effects of lead compounds on insulin catabolism using HeLa cells.
The cytotoxicity assay was performed using human cervical cancer HeLa cells. Cells were cultured at 37°C under a humidified atmosphere of 5% CO2 in medium supplemented with 10% fetal bovine serum and dispersed in replicate 96-well plates with 2.5×10^4 cells/well. Compounds were then added. After 24 hours exposure to the chemical compounds, the cell viability was determined by 3-[4,5-dimethylthiazol-2-yl]-2,5-diphenpyltetrazolium bromide (MTT) assay. The optical density (OD) of the wells was determined using ELISA plate reader at a test wavelength of 600 nm and a reference wavelength of 630 nm. Each measurement was carried out in triplicate.

IDE [4] = conditions: bradykinin as IDE substrate; cited from earlier work

| Compound | effect on insulin catabolism in HeLa cells (HeLa cells [1]; HeLa cells pre-loaded with FITC-insulin) | permeability through cell membrane (HeLa cells [1]; inferred from HeLa cell assay) | increase of IDE-mediated amyloid-β degradation (IDE [2]; 20 µM compound) | effect of ATP on amyloid-β degradation in presence of compound (IDE [2]; ATP, data not shown) | EC50 (IDE [2]; dose response, Sigmoidal Hill 4 parameter fit) | acceleration of initial rate of amyloid-β proteolysis (IDE [2]; presence vs absence of compound) | cytotoxicity at EC50 value (HeLa cells [3]; 2 µM) | cytotoxicity at high concentrations (HeLa cells [3]; 1 to 100 µM, 24 h) | Km (IDE [4]) |
| --- | --- | --- | --- | --- | --- | --- | --- | --- | --- |
| O=[N+]([O-])c1cc(Cn2c(-c3ccc(Cl)c([N+](=O)[O-])c3)nc3ccccc32)ccc1Cl [Compound D6] | no effect on insulin catabolism; also recorded: does not change insulin degradation | permeable through cell membrane | 20% | no effect | 2000 nM | 1.3 factor | not toxic | showed toxicity at higher concentrations |  |
| bradykinin (RPPGFSPFR; Bradykinin; UniProt P01042 381-389, looked up) |  |  |  |  |  |  |  |  | 4.2 mM |
